From ChEMBL document CHEMBL1157758, “Structural and stereochemical requirements of the spiroketal group of hippuristanol for antiproliferative activity” (Bioorg Med Chem Lett, 2010)

test system: HeLa; experiment: Antiproliferative activity against human HeLa cells by [3H]thymidine incorporation; assay type: functional, cell-based

Row | Structure (SMILES) | IC50 [nM]
1 | CC1(C)CCC[C@@]2(O[C@H]3C[C@H]4[C@@H]5CC[C@H]6C[C@H](O)CC[C@]6(C)[C@H]5[C@@H](O)C[C@]4(C)[C@H]3[C@@]2(C)O)O1 | 600
2 | CC1(C)C[C@@]2(O[C@H]3C[C@H]4[C@@H]5CC[C@H]6C[C@H](O)CC[C@]6(C)[C@H]5[C@@H](O)C[C@]4(C)[C@H]3[C@@]2(C)O)OC1(C)C | 200
3 | C[C@H]1C[C@@]2(O[C@H]3C[C@H]4[C@@H]5CC[C@H]6C[C@H](O)CC[C@]6(C)[C@H]5[C@@H](O)C[C@]4(C)[C@H]3[C@@]2(C)O)OC1(C)C [HIPPURISTANOL] | 70
4 | CC1(C)C[C@@]2(O[C@H]3C[C@H]4[C@@H]5CC[C@H]6C[C@H](O)CC[C@]6(C)[C@H]5[C@@H](O)C[C@]4(C)[C@H]3[C@]2(C)O)OC1(C)C | > 10000
5 | CCC1(CC)CC[C@]2(O[C@H]3C[C@H]4[C@@H]5CC[C@H]6C[C@H](O)CC[C@]6(C)[C@H]5[C@@H](O)C[C@]4(C)[C@H]3[C@@]2(C)O)O1 | > 10000
6 | C[C@]12CC[C@@H](O)C[C@@H]1CC[C@@H]1[C@@H]2[C@@H](O)C[C@@]2(C)[C@H]1C[C@@H]1O[C@]3(CCCCO3)[C@](C)(O)[C@@H]12 | > 10000
7 | C[C@]12CC[C@@H](O)C[C@@H]1CC[C@@H]1[C@@H]2[C@@H](O)C[C@@]2(C)[C@H]1C[C@@H]1O[C@@]3(CCCCO3)[C@](C)(O)[C@@H]12 | 1600
8 | CC1(C)C[C@]2(O[C@H]3C[C@H]4[C@@H]5CC[C@H]6C[C@H](O)CC[C@]6(C)[C@H]5[C@@H](O)C[C@]4(C)[C@H]3[C@@]2(C)O)OC1(C)C | 2200
9 | CCC1(CC)CC[C@@]2(O[C@H]3C[C@H]4[C@@H]5CC[C@H]6C[C@H](O)CC[C@]6(C)[C@H]5[C@@H](O)C[C@]4(C)[C@H]3[C@@]2(C)O)O1 | 3600
10 | CC1(C)CO[C@@]2(C1)O[C@H]1C[C@H]3[C@@H]4CC[C@H]5C[C@H](O)CC[C@]5(C)[C@H]4[C@@H](O)C[C@]3(C)[C@H]1[C@@]2(C)O | > 10000
11 | CC1(C)CO[C@]2(C1)O[C@H]1C[C@H]3[C@@H]4CC[C@H]5C[C@H](O)CC[C@]5(C)[C@H]4[C@@H](O)C[C@]3(C)[C@H]1[C@@]2(C)O | > 10000
12 | CC1(C)CCC[C@]2(O[C@H]3C[C@H]4[C@@H]5CC[C@H]6C[C@H](O)CC[C@]6(C)[C@H]5[C@@H](O)C[C@]4(C)[C@H]3[C@@]2(C)O)O1 | 4900
